According to US20140335166A1, “Methods of Making and Using Nano Scale Particles” (priority 2013, published 2014):

Test system: Cultured liver cells
Assay: Phosphatidylcholine biosynthesis as measure of cell function in cultured liver cells incubated with ethanol
Type: cell-based
Conditions: 100 mM ethanol, 24 hours
Experimental: As an example of the effectiveness of using the PPC, the following experiments were conducted. Cultured liver cells were incubated for 24 hours with 100 mM ethanol in the presence of (1) water, (2) VEP/EPC (egg phosphatidylcholine), or (3) VEP/PPC. Agent-dependent alterations in cell function were determined by measuring phosphatidylcholine biosynthesis. Similar results were obtained in the three separate preparations of cultured cells, all of which are reflected in the Table 1 set forth below. Control cells are expressed as 100%, meaning full cellular function. A reduction below 100% represents a decrease in cell function.

## CCO [Ethanol]
  reduction in cell function from control cells: 63%
Control cells = 100%, VEP/EPC (15 Mm EPC), VEP/PPC (15 Mm VEP and 30 Mm PPC)
  % Control ± SEM (phosphatidylcholine biosynthesis, cell function): 37 ± 1 %
